We go through 15 compounds from patent US20240218022A1, “ANTI-VISTA MACROCYCLIC PEPTIDES AND COMPOSITIONS” (BRISTOL-MYERS SQUIBB COMPANY, priority 2022, published 2024).

Positions of bridges follow the written chain, without caps; N, C: chain ends. Non-standard residues stand in square brackets, D forms with d. Residues, ends and D or L forms follow the SMILES beside them. Ahp(2) = CCCCC[C@H](N)C(=O)O; NHexGly = CCCCCCNCC(=O)O; Nle = CCCC[C@H](N)C(=O)O

The target in the assay is T1, mouse VISTA (mVISTA) (Mus musculus, UniProt Q9D659).
T1 construct: expressed in transfected cells; host or cells: Human embryonic kidney 293T cells
T1 sequence (Q9D659 33-308): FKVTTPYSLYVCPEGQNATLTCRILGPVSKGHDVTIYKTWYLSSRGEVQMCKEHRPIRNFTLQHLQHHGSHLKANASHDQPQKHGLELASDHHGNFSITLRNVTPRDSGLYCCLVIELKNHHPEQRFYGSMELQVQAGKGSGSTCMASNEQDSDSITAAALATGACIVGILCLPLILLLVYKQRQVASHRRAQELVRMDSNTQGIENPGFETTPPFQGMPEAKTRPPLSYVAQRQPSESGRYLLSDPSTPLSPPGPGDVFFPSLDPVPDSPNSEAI
Nature of the assay: Cell-Based Binding High-Content Assay For mVISTA (HC CBA mVISTA). To be noted: 293T cells expressing mouse VISTA; competition with biotinylated peptide (2 nM); read-out: HC CBA mVISTA IC50. In short, it runs like this:
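293T cells expressing mouse VISTA, with compounds added either after seeding ("no wash") or before seeding and then washed out after 1 h. Biotinylated peptide 2 nM for 30 min at room temperature, then detection with Alexa 647–streptavidin. After fixation with Hoechst stain, plates were high-content imaged; IC50 from four-parameter logistic fit.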
In the case of `CCCCCCN1CC(=O)N[C@@H](Cc2ccc(O)cc2)C(=O)N[C@@H](CCCCC)C(=O)N[C@@H](CC(=O)O)C(=O)N[C@@H](CCCNC(=N)N)C(=O)N[C@@H](CC(C)C)C(=O)N[C@@H](CCCCC)C(=O)N2CCC[C@H]2C(=O)N[C@@H](C(C)C)C(=O)N[C@@H](CC(=O)O)C(=O)N[C@H](C(=O)N[C@H](CC(=O)O)C(N)=O)CSCC(=O)N[C@@H](Cc2ccccc2)C(=O)N[C@@H](Cc2ccc(O)cc2)C(=O)N[C@@H](CC(=O)O)C1=O` [Example 1002] ({CH2CO}-FYD[NHexGly]Y[Ahp(2)]DRL[Ahp(2)]PVDC[dD]-NH2; thioether N-14), the IC50 is 14.9 nM.

`CCCCCCN1CC(=O)N[C@@H](Cc2ccc(O)cc2)C(=O)N[C@@H](CCCC)C(=O)N[C@@H](CC(=O)O)C(=O)N[C@@H](CCCNC(=N)N)C(=O)N[C@@H](CC(C)C)C(=O)N[C@@H](CCCCC)C(=O)N2CCC[C@H]2C(=O)N[C@@H](C(C)C)C(=O)N[C@@H](CC(=O)O)C(=O)N[C@H](C(=O)N[C@H](CC(=O)O)C(N)=O)CSCC(=O)N[C@@H](Cc2ccccc2)C(=O)N[C@@H](Cc2ccc(O)cc2)C(=O)N[C@@H](CC(=O)O)C1=O` [Example 1003] ({CH2CO}-FYD[NHexGly]Y[Nle]DRL[Ahp(2)]PVDC[dD]-NH2; thioether N-14): the IC50 was found to be 18.8 nM.

Turning to `CCCCCCN1CC(=O)N[C@@H](Cc2ccc(O)cc2)C(=O)N[C@@H](CCCCC)C(=O)N[C@@H](CC(=O)O)C(=O)N[C@@H](CCCNC(=N)N)C(=O)N[C@@H](CC(C)C)C(=O)N[C@@H](CCCCC)C(=O)N2CCC[C@H]2C(=O)N[C@@H](C(C)C)C(=O)N[C@@H](CC(=O)O)C(=O)N[C@H](C(=O)N[C@@H](CCC(=O)O)C(N)=O)CSCC(=O)N[C@@H](Cc2ccccc2)C(=O)N[C@@H](Cc2ccc(O)cc2)C(=O)N[C@@H](CC(=O)O)C1=O` [Example 1004] ({CH2CO}-FYD[NHexGly]Y[Ahp(2)]DRL[Ahp(2)]PVDCE-NH2; thioether N-14), the IC50 worked out at 12.9 nM.

Take `CCCCCCN1CC(=O)N[C@@H](Cc2ccc(O)cc2)C(=O)N[C@@H](CCCC)C(=O)N[C@@H](CC(=O)O)C(=O)N[C@@H](CCCNC(=N)N)C(=O)N[C@@H](CC(C)C)C(=O)N[C@@H](CCCCC)C(=O)N2CCC[C@H]2C(=O)N[C@@H](C(C)C)C(=O)N[C@@H](CC(=O)O)C(=O)N[C@H](C(=O)N[C@@H](CCC(=O)O)C(N)=O)CSCC(=O)N[C@@H](Cc2ccccc2)C(=O)N[C@@H](Cc2ccc(O)cc2)C(=O)N[C@@H](CC(=O)O)C1=O` [Example 1005] ({CH2CO}-FYD[NHexGly]Y[Nle]DRL[Ahp(2)]PVDCE-NH2; thioether N-14): the IC50 was 12.7 nM.

On to `CCCCCCN1CC(=O)N[C@@H](Cc2ccc(O)cc2)C(=O)N[C@@H](CCCCC)C(=O)N[C@@H](CC(N)=O)C(=O)N[C@@H](CCCNC(=N)N)C(=O)N[C@@H](CC(C)C)C(=O)N[C@@H](CCCCC)C(=O)N2CCC[C@H]2C(=O)N[C@@H](C(C)C)C(=O)N[C@@H](C)C(=O)N[C@H](C(=O)NCC(N)=O)CSCC(=O)N[C@@H](Cc2ccccc2)C(=O)N[C@@H](Cc2ccc(O)cc2)C(=O)N[C@@H](CC(=O)O)C1=O` [Example 1006] ({CH2CO}-FYD[NHexGly]Y[Ahp(2)]NRL[Ahp(2)]PVACG-NH2; thioether N-14), for which the IC50 is 38.6 nM.

For the compound `CCCCCCN1CC(=O)N[C@@H](Cc2ccc(O)cc2)C(=O)N[C@@H](CCCC)C(=O)NCC(=O)N[C@@H](CCCNC(=N)N)C(=O)N[C@@H](CC(C)C)C(=O)N[C@@H](CCCCC)C(=O)N2CCC[C@H]2C(=O)N[C@@H](C(C)C)C(=O)N[C@@H](C)C(=O)N[C@H](C(=O)NCC(=O)O)CSCC(=O)N[C@@H](Cc2ccccc2)C(=O)N[C@@H](Cc2ccc(O)cc2)C(=O)N[C@@H](CC(=O)O)C1=O` [Example 1007] ({CH2CO}-FYD[NHexGly]Y[Nle]GRL[Ahp(2)]PVACG-OH; thioether N-14), the IC50 amounted to 15.1 nM.

`CCCCCCN1CC(=O)N[C@@H](Cc2ccc(O)cc2)C(=O)N[C@@H](CC(C)C)C(=O)N[C@@H](CC(N)=O)C(=O)N[C@@H](CCCNC(=N)N)C(=O)N[C@@H](CC(C)C)C(=O)N[C@@H](CCCCC)C(=O)N2CCC[C@H]2C(=O)N[C@@H](C(C)C)C(=O)N[C@@H](C)C(=O)N[C@H](C(=O)NCC(=O)O)CSCC(=O)N[C@@H](Cc2ccccc2)C(=O)N[C@@H](Cc2ccc(O)cc2)C(=O)N[C@@H](CC(=O)O)C1=O` [Example 1008] ({CH2CO}-FYD[NHexGly]YLNRL[Ahp(2)]PVACG-OH; thioether N-14): the concentration for half-maximal inhibition (IC50) was 34.9 nM.

In the case of `CCCCCCN1CC(=O)N[C@@H](Cc2ccc(O)cc2)C(=O)N[C@@H](CCCC)C(=O)NCC(=O)N[C@@H](CCCNC(=N)N)C(=O)N[C@@H](CC(C)C)C(=O)N[C@@H](CCCCC)C(=O)N2CCC[C@H]2C(=O)N[C@@H](C(C)C)C(=O)N[C@@H](CC(=O)O)C(=O)N[C@H](C(=O)NCC(=O)O)CSCC(=O)N[C@@H](Cc2ccccc2)C(=O)N[C@@H](Cc2ccc(O)cc2)C(=O)N[C@@H](CC(=O)O)C1=O` [Example 1009] ({CH2CO}-FYD[NHexGly]Y[Nle]GRL[Ahp(2)]PVDCG-OH; thioether N-14), the half-maximal inhibitory concentration (IC50) was found to be 8 nM.

For the compound `CCCCCCN1CC(=O)N[C@@H](Cc2ccc(O)cc2)C(=O)N[C@@H](CCCC)C(=O)N[C@@H](CC(=O)O)C(=O)N[C@@H](CCCNC(=N)N)C(=O)N[C@@H](CC(C)C)C(=O)N[C@@H](CCCCC)C(=O)N2CCC[C@H]2C(=O)N[C@@H](C(C)C)C(=O)N[C@@H](CC(=O)O)C(=O)N[C@H](C(=O)NCC(=O)O)CSCC(=O)N[C@@H](Cc2ccccc2)C(=O)N[C@@H](Cc2ccc(O)cc2)C(=O)N[C@@H](CC(=O)O)C1=O` [Example 1010] ({CH2CO}-FYD[NHexGly]Y[Nle]DRL[Ahp(2)]PVDCG-OH; thioether N-14), the IC50 is 5.6 nM.

Consider `CCCCCCN1CC(=O)N[C@@H](Cc2ccc(O)cc2)C(=O)N[C@@H](CC(C)C)C(=O)N[C@@H](CC(N)=O)C(=O)N[C@@H](CCCNC(=N)N)C(=O)N[C@@H](CC(C)C)C(=O)N[C@@H](CCCCC)C(=O)N2CCC[C@H]2C(=O)N[C@@H](C(C)C)C(=O)N[C@@H](CC(=O)O)C(=O)N[C@H](C(=O)NCC(=O)O)CSCC(=O)N[C@@H](Cc2ccccc2)C(=O)N[C@@H](Cc2ccc(O)cc2)C(=O)N[C@@H](CC(=O)O)C1=O` [Example 1011] ({CH2CO}-FYD[NHexGly]YLNRL[Ahp(2)]PVDCG-OH; thioether N-14), for which the IC50 amounted to 15.9 nM.

As for `CCCCCCN1CC(=O)N[C@@H](Cc2ccc(O)cc2)C(=O)N[C@@H](CCCNC(=N)N)C(=O)N[C@@H](CC(N)=O)C(=O)N[C@@H](CCCNC(=N)N)C(=O)N[C@@H](CC(C)C)C(=O)N[C@@H](CCCCC)C(=O)N2CCC[C@H]2C(=O)N[C@@H](C(C)C)C(=O)N[C@@H](CC(=O)O)C(=O)N[C@H](C(=O)NCC(=O)O)CSCC(=O)N[C@@H](Cc2ccccc2)C(=O)N[C@@H](Cc2ccc(O)cc2)C(=O)N[C@@H](CC(=O)O)C1=O` [Example 1012] ({CH2CO}-FYD[NHexGly]YRNRL[Ahp(2)]PVDCG-OH; thioether N-14), the concentration for half-maximal inhibition (IC50) was 21.1 nM.

Take `CCCCCCN1CC(=O)N[C@@H](Cc2ccc(O)cc2)C(=O)N[C@@H](CCCCC)C(=O)N[C@@H](CC(=O)O)C(=O)N[C@@H](CCCNC(=N)N)C(=O)N[C@@H](CC(C)C)C(=O)N[C@@H](CCCCC)C(=O)N2CCC[C@H]2C(=O)N[C@@H](C(C)C)C(=O)N[C@@H](CC(=O)O)C(=O)N[C@H](C(=O)NCC(=O)O)CSCC(=O)N[C@@H](Cc2ccccc2)C(=O)N[C@@H](Cc2ccc(O)cc2)C(=O)N[C@@H](CC(=O)O)C1=O` [Example 1013] ({CH2CO}-FYD[NHexGly]Y[Ahp(2)]DRL[Ahp(2)]PVDCG-OH; thioether N-14): the IC50 worked out at 17.1 nM.

In the case of `CCCCCCN1CC(=O)N[C@@H](Cc2ccc(O)cc2)C(=O)N[C@@H](CC(C)C)C(=O)N[C@@H](CC(=O)O)C(=O)N[C@@H](CCCNC(=N)N)C(=O)N[C@@H](CC(C)C)C(=O)N[C@@H](CCCCC)C(=O)N2CCC[C@H]2C(=O)N[C@@H](C(C)C)C(=O)N[C@@H](CC(=O)O)C(=O)N[C@H](C(=O)NCC(N)=O)CSCC(=O)N[C@@H](Cc2ccccc2)C(=O)N[C@@H](Cc2ccc(O)cc2)C(=O)N[C@@H](CC(=O)O)C1=O` [Example 1014] ({CH2CO}-FYD[NHexGly]YLDRL[Ahp(2)]PVDCG-NH2; thioether N-14), the IC50 was found to be 18.4 nM.

With `CCCCCCN1CC(=O)N[C@@H](Cc2ccc(O)cc2)C(=O)N[C@@H](CCCCC)C(=O)N[C@@H](CC(=O)O)C(=O)N[C@@H](CCCNC(=N)N)C(=O)N[C@@H](CC(C)C)C(=O)N[C@@H](CCCCC)C(=O)N2CCC[C@H]2C(=O)N[C@@H](C(C)C)C(=O)N[C@@H](CC(=O)O)C(=O)N[C@H](C(=O)NCC(N)=O)CSCC(=O)N[C@@H](Cc2ccccc2)C(=O)N[C@@H](Cc2ccc(O)cc2)C(=O)N[C@@H](CC(=O)O)C1=O` [Example 1015] ({CH2CO}-FYD[NHexGly]Y[Ahp(2)]DRL[Ahp(2)]PVDCG-NH2; thioether N-14), the IC50 stood at 8.7 nM.

`CCCCCCN1CC(=O)N[C@@H](Cc2ccc(O)cc2)C(=O)N[C@@H](CC(C)C)C(=O)NCC(=O)N[C@@H](CCCNC(=N)N)C(=O)N[C@@H](CC(C)C)C(=O)N[C@@H](CCCCC)C(=O)N2CCC[C@H]2C(=O)N[C@@H](C(C)C)C(=O)N[C@@H](CC(=O)O)C(=O)N[C@H](C(=O)NCC(=O)O)CSCC(=O)N[C@@H](Cc2ccccc2)C(=O)N[C@@H](Cc2ccc(O)cc2)C(=O)N[C@@H](CC(=O)O)C1=O` [Example 1016] ({CH2CO}-FYD[NHexGly]YLGRL[Ahp(2)]PVDCG-OH; thioether N-14): the half-inhibitory concentration (IC50) came to 21 nM.

By IC50 is commonly meant the concentration that gives 50% inhibition.
